In the CheMixHub viscosity set:

Test: xn = mol fraction of the nth substance listed

CC(=O)OC(C)C + C1CCCCC1
viscosity [mPa·s], 101 kPa
Details	298.15 K	308.15 K
x1 = 0.0846	0.8036	0.6718
x1 = 0.1126	0.7518	0.6494
x1 = 0.1665	0.705	0.612
x1 = 0.2671	0.636	0.5559
x1 = 0.3555	0.594	0.5212
x1 = 0.4881	0.5485	0.4824
x1 = 0.5911	0.5241	0.462
x1 = 0.6773	0.5099	0.4512
x1 = 0.7902	0.4951	0.441
x1 = 0.8873	0.4932	0.4366
x1 = 0.9593	0.4903	0.4349
x2 = 0.07507	–	0.4324
x2 = 0.2053	–	0.4373
x2 = 0.298	–	0.4444
x2 = 0.3967	–	0.4564
x2 = 0.505	–	0.4759
x2 = 0.6014	–	0.4989
x2 = 0.714	–	0.5351
x2 = 0.7973	–	0.5787
x2 = 0.8978	–	0.6451

CCCC(=O)O + C1CCCCC1
303.15 K, 101 kPa
Details	viscosity [mPa·s]
x2 = 0.101	1.196
x2 = 0.1921	1.069
x2 = 0.2875	0.9914
x2 = 0.3938	0.9189
x2 = 0.4993	0.867
x2 = 0.591	0.8407
x2 = 0.6993	0.7948
x2 = 0.8074	0.7912
x2 = 0.9011	0.7924

CCCC(C)O (stereo not drawn) + C1CCCCC1
303.15 K, 101.33 kPa
Details	viscosity [mPa·s]
x1 = 0.1049	0.874
x1 = 0.2028	0.94
x1 = 0.3035	1.03
x1 = 0.4031	1.151
x1 = 0.5017	1.306
x1 = 0.6043	1.534
x1 = 0.6903	1.772
x1 = 0.801	2.116
x1 = 0.9115	2.521

CCCCBr + C1CCCCC1
308.15 K, 101 kPa
Details	viscosity [mPa·s]
x2 = 0.1017	0.5246
x2 = 0.2037	0.5305
x2 = 0.3038	0.5365
x2 = 0.4015	0.5458
x2 = 0.5006	0.5596
x2 = 0.5951	0.5789
x2 = 0.7004	0.6032
x2 = 0.8014	0.6338
x2 = 0.899	0.6799

CCCCNCCCC + C1CCCCC1
viscosity [mPa·s], 101 kPa
Details	303.15 K	313.15 K
x1 = 0.01094	0.8102	0.7072
x1 = 0.02041	0.8023	0.6959
x1 = 0.02983	0.7945	0.6867
x1 = 0.03917	0.7871	0.6761
x1 = 0.04929	0.7755	0.6665
x1 = 0.05831	0.7665	0.6583
x1 = 0.06895	0.7585	0.6494
x1 = 0.07966	0.7491	0.6406
x1 = 0.08806	0.742	0.6327
x2 = 0.1011	0.749	–
x2 = 0.2001	0.737	–
x2 = 0.3025	0.731	–
x2 = 0.4034	0.728	–
x2 = 0.4997	0.727	–
x2 = 0.605	0.729	–
x2 = 0.7025	0.727	–
x2 = 0.7989	0.743	–
x2 = 0.8971	0.759	–

COCCO + C1CCCCC1
viscosity [mPa·s], 101 kPa
Details	298.15 K	308.15 K
x1 = 0.054	0.905	0.75
x1 = 0.1506	0.923	0.757
x1 = 0.2513	0.95	0.773
x1 = 0.3532	0.989	0.797
x1 = 0.4508	1.037	0.829
x1 = 0.4955	1.062	0.847
x1 = 0.5513	1.098	0.873
x1 = 0.649	1.172	0.926
x1 = 0.7493	1.264	0.994
x1 = 0.8496	1.377	1.079
x1 = 0.9529	1.518	1.185

CCCC(=O)O + C1CCOC1
298.15 K, 101 kPa
Details	viscosity [mPa·s]
x2 = 0.1195	1.45
x2 = 0.234	1.43
x2 = 0.3437	1.34
x2 = 0.4489	1.212
x2 = 0.5499	1.068
x2 = 0.647	0.9205
x2 = 0.7403	0.7856
x2 = 0.8301	0.6588
x2 = 0.9166	0.545

CCOC(=O)C(=O)OCC + C1CCOC1
viscosity [mPa·s], 101 kPa
Details	x1 = 0.0955	x1 = 0.2037	x1 = 0.3007	x1 = 0.4056	x1 = 0.513	x1 = 0.6056	x1 = 0.7083	x1 = 0.7994	x1 = 0.9082
303.15 K	0.506	0.591	0.683	0.795	0.916	1.03	1.173	1.298	1.472
313.15 K	0.453	0.529	0.607	0.698	0.801	0.893	1.006	1.107	1.237
323.15 K	0.414	0.479	0.544	0.619	0.701	0.782	0.872	0.954	1.057

C1CC[C@H]2CCCC[C@H]2C1 + C1CC[C@H]2CCCC[C@@H]2C1
Details	viscosity [mPa·s]
293.15 K, 101 kPa, x1 = 0.103	2.193
293.15 K, 101 kPa, x1 = 0.129	2.206
293.15 K, 101 kPa, x1 = 0.206	2.289
293.15 K, 101 kPa, x1 = 0.256	2.321
293.15 K, 101 kPa, x1 = 0.383	2.391
293.15 K, 101 kPa, x1 = 0.509	2.622
293.15 K, 101 kPa, x1 = 0.608	2.748
293.15 K, 101 kPa, x1 = 0.633	2.763
293.15 K, 101 kPa, x1 = 0.756	2.943
293.15 K, 101 kPa, x1 = 0.805	3.026
293.15 K, 101 kPa, x1 = 0.903	3.178
293.15 K, 101.3 kPa, x1 = 0.403	2.445
298.15 K, 100 kPa, x1 = 0.39	2.22
303.15 K, 101 kPa, x1 = 0.103	1.68
303.15 K, 101 kPa, x1 = 0.129	1.704
303.15 K, 101 kPa, x1 = 0.206	1.748
303.15 K, 101 kPa, x1 = 0.256	1.792
303.15 K, 101 kPa, x1 = 0.383	1.896
303.15 K, 101 kPa, x1 = 0.509	1.977
303.15 K, 101 kPa, x1 = 0.608	2.062
303.15 K, 101 kPa, x1 = 0.633	2.094
303.15 K, 101 kPa, x1 = 0.756	2.151
303.15 K, 101 kPa, x1 = 0.805	2.244
303.15 K, 101 kPa, x1 = 0.903	2.342
303.15 K, 101.3 kPa, x1 = 0.403	1.998
313.15 K, 101.3 kPa, x1 = 0.403	1.705
323.15 K, 100 kPa, x1 = 0.39	1.44
323.15 K, 101.3 kPa, x1 = 0.403	1.457

CC(CC(C)(C)C)CC(C)(C)CC(C)(C)C (stereo not drawn) + C1CC[C@H]2CCCC[C@H]2C1
viscosity [mPa·s], 100 kPa
Details	x2 = 0.125	x2 = 0.25	x2 = 0.375	x2 = 0.5	x2 = 0.625	x2 = 0.75	x2 = 0.875
293.15 K	3.68	3.64	3.559	3.505	3.456	3.402	3.377
303.15 K	2.919	2.871	2.83	2.797	2.765	2.736	2.713
313.15 K	2.364	2.334	2.303	2.279	2.259	2.254	2.228
323.15 K	1.961	1.934	1.911	1.897	1.884	1.876	1.87

CCCCNCCCC + C1COCCO1
Details	viscosity [mPa·s]
303.15 K, 101 kPa, x1 = 0.01068	1.065

CCCC(=O)O + C1COCO1
298.15 K, 101 kPa
Details	viscosity [mPa·s]
x2 = 0.2292	1.358
x2 = 0.3376	1.288
x2 = 0.5433	1.098
x2 = 0.6408	0.9928
x2 = 0.7351	0.8845
x2 = 0.8263	0.7758
x2 = 0.9146	0.6775

C1CC[C@H]2CCCC[C@H]2C1 + CC1CCCCC1
viscosity [mPa·s], 100 kPa
Details	x2 = 0.125	x2 = 0.25	x2 = 0.375	x2 = 0.5	x2 = 0.625	x2 = 0.75	x2 = 0.875
293.15 K	2.749	2.287	1.867	1.541	1.3	1.076	0.894
303.15 K	2.241	1.912	1.567	1.312	1.096	0.935	0.776
313.15 K	1.858	1.6	1.326	1.123	0.944	0.824	0.674
323.15 K	1.578	1.367	1.168	0.986	0.837	0.701	0.604

CC(CC(C)(C)C)CC(C)(C)CC(C)(C)C (stereo not drawn) + CC1CCCCC1
viscosity [mPa·s], 100 kPa
Details	x2 = 0.125	x2 = 0.25	x2 = 0.375	x2 = 0.5	x2 = 0.625	x2 = 0.75	x2 = 0.875
293.15 K	3.188	2.761	2.275	1.89	1.52	1.244	0.967
303.15 K	2.553	2.272	1.864	1.556	1.283	1.047	0.834
313.15 K	2.1	1.886	1.574	1.32	1.096	0.908	0.725
323.15 K	1.766	1.538	1.329	1.136	0.953	0.802	0.641

CCCC(C)O (stereo not drawn) + CC1CCCCC1
viscosity [mPa·s], 100 kPa
Details	x2 = 0.081	x2 = 0.16	x2 = 0.2399	x2 = 0.3501	x2 = 0.4399	x2 = 0.56	x2 = 0.6499	x2 = 0.7401	x2 = 0.8499	x2 = 0.94
293.15 K	3.09	2.46	1.96	1.48	1.23	1.05	0.98	0.93	0.88	0.8
298.15 K	2.56	2.05	1.66	1.26	1.06	0.92	0.86	0.82	0.79	0.73
303.15 K	2.15	1.74	1.43	1.11	0.95	0.83	0.79	0.77	0.73	0.68
308.15 K	1.83	1.5	1.24	0.99	0.86	0.75	0.71	0.69	0.67	0.63
313.15 K	1.57	1.31	1.1	0.89	0.78	0.7	0.67	0.65	0.63	0.59
318.15 K	1.35	1.13	0.96	0.8	0.72	0.66	0.64	0.62	0.6	0.57
323.15 K	1.17	1	0.86	0.72	0.66	0.61	0.58	0.57	0.56	0.54
